Entries after “also recorded” stand apart in the source; their conditions may differ. Marks after values point to notes of the source that are not given here.
How the values were obtained:
[1] = test system: arthritic rats (collagen-induced arthritis model); experiment: Collagen-induced arthritis in rats: clinical score, oedema, histology; format: in vivo, rat
Experimental: Male Lewis rats were immunised by intradermal injection at the base of the tail with an emulsion containing 150 μg of bovine collagen type II (bCII) in complete Freund’s adjuvant (CFA) or received an injection with incomplete Freund’s adjuvant (sham group). Three weeks after the first immunisation, animals were boosted with the same procedure. Three days after booster injection, arthritis had developed in all animals but the sham group. Oedema was assessed via plethysmometer (Ugo Basile, Varese, Italy), and the animals were then randomised to treatment groups. Oedema measurement was performed again after 7 and 14 days of treatment. Animals were blindly scored by two different investigators for clinical signs of arthritis (redness, swelling, pain of hind limb joints) as follows: 0 = normal; 1 = mild but definite redness and swelling of the ankle or wrist or individual digits, regardless of the number of affected digits; 2 = moderate redness and swelling of ankle or wrist; 3 = severe redness and swelling of the entire paw including digits; and 4 = maximally inflamed limb with involvement of multiple joints. The mean of the scores assigned by the investigators was calculated.
Three different experiments in rat CIA are reported: a dose-response study, as well as two comparative studies vs the COX-2 inhibitor rofecoxib and the Janus kinase (JAK) inhibitor tofacitinib, respectively.
Briefly, the paws were fixed in 10% neutral buffered formalin (Bio-Optica, Milan, Italy) and subsequently decalcified in EDTA for 4 weeks. Samples were dehydrated in an ethanol series and embedded in paraffin. At least three non-consecutive sections for each paw were blindly scored at the level of the tarsus, metatarsus and calcaneus for the following histological features: synovial oedema, pannus, synovial inflammatory cell infiltrate, cartilage damage, osteolysis and woven bone. Based on these histological features, a synovial score (synovial oedema, plus synovial inflammatory cell infiltrate, plus pannus), a bone score (woven bone plus osteolysis) and a total score were calculated. Two independent pathologists performed histopathology on blinded slides. The data of right and left hind limbs were summed for each rat.

[2] = Plasma protein binding (equilibrium dialysis, [^14C]CR6086); format: in vitro ADME; settings: rat, 0.2–200 μM, read-out: unbound fraction (fu)
Experimental: CR6086 concentrations in rat plasma were determined by high-performance liquid chromatography (Agilent 1200 series; Agilent Technologies, Santa Clara, CA, USA) coupled with a triple-quadrupole mass spectrometer (API 4000 QTRAP; SCIEX, Concord, ON, Canada). A ZORBAX SB-C18 2.0 × 50-mm, 3.5-μm column (Agilent Technologies) in isocratic conditions was used with mobile phase 0.1% formic acid in water/acetonitrile (68:32 vol/vol). The method was linear within the dynamic range 1.0–10,000 ng/ml (lower to upper limit of quantification). CR6086 plasma protein binding was determined in the 0.2–200 μM concentration range using [^14C]CR6086 and equilibrium dialysis. EP4 receptor occupancy (RO) was calculated on the basis of CR6086 concentrations according to the following formula: RO%=Cave/Cave+Ki×100,

[3] = test system: arthritic mice (collagen-induced arthritis model); experiment: CIA in mice, third study (CR6086, MTX, combination): clinical score, oedema, histology; format: in vivo, mouse; settings: for CLINICAL SCORE (interquartile range): 30 mg/kg CR6086, median (IQR)
A3 = A3 (Homo sapiens, UniProt P0DMS8); experiment: Adenosine receptor A3 binding; settings: [^125I]AB-MECA, Human recombinant HEK-293 cells, read-out: CR6086 Activity at 10µM
Sequence of A3 (P0DMS8 whole entry): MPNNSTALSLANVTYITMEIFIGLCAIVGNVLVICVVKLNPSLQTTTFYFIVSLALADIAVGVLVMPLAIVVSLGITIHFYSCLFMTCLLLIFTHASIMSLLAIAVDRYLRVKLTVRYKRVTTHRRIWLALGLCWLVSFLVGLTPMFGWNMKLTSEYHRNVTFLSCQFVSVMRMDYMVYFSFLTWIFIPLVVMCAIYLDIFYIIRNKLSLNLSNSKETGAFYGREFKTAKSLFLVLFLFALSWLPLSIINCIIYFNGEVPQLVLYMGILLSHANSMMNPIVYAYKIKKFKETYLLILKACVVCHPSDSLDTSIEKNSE

5-HT3 = 5-HT3 (Homo sapiens, UniProt P46098); experiment: Serotonin receptor 5-HT3 binding; settings: [^3H]BRL 43694, Human recombinant CHO cells, read-out: CR6086 Activity at 10µM
Sequence of 5-HT3 (P46098 24-478): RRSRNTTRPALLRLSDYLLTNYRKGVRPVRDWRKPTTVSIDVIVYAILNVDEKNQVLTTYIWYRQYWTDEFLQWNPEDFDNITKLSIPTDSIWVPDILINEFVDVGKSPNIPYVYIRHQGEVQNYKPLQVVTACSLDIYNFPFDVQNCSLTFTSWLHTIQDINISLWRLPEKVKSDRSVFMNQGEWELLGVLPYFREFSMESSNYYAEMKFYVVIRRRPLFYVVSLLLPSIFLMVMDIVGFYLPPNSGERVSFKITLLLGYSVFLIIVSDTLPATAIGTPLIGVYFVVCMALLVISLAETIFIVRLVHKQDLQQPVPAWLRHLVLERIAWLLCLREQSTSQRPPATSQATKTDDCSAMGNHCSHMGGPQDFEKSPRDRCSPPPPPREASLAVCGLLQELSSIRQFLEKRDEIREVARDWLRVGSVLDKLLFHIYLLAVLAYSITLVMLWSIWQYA

GAL2 = GAL2 (Homo sapiens, UniProt O43603); experiment: Galanin receptor GAL2 binding; settings: [^125I]galanin, Human recombinant CHO cells, read-out: CR6086 Activity at 10µM
Sequence of GAL2 (O43603 whole entry): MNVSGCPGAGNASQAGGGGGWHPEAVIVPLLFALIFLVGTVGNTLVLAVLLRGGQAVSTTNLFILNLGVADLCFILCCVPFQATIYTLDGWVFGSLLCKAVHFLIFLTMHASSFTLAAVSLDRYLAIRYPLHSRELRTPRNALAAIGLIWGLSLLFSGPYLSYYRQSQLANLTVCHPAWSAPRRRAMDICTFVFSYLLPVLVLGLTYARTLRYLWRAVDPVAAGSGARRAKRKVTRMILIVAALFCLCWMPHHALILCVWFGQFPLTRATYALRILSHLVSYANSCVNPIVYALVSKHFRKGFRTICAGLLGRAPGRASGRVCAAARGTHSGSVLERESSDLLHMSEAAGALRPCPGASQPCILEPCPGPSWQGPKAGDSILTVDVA

Y1 = Y1 (Homo sapiens, UniProt P25929); experiment: Neuropeptide Y receptor Y1 binding; settings: [^125I]peptide YY, SK-N-MC cells (endogenous), read-out: CR6086 Activity at 10µM
Sequence of Y1 (P25929 whole entry): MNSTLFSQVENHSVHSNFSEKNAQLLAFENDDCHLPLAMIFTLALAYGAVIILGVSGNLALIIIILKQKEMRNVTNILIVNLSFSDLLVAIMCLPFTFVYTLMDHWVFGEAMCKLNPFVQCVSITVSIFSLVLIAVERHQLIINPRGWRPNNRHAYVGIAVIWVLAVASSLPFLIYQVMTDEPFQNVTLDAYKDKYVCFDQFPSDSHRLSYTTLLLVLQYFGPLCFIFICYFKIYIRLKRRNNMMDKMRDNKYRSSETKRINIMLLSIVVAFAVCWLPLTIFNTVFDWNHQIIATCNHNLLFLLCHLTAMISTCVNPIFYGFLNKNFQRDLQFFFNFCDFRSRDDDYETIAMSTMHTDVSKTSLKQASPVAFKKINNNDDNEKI

PPARγ = PPARγ (Homo sapiens, UniProt P37231); experiment: Nuclear receptor PPARγ binding; settings: [^3H]rosiglitazone, Human recombinant E.Coli, read-out: CR6086 Activity at 10µM
Sequence of PPARγ (P37231 whole entry): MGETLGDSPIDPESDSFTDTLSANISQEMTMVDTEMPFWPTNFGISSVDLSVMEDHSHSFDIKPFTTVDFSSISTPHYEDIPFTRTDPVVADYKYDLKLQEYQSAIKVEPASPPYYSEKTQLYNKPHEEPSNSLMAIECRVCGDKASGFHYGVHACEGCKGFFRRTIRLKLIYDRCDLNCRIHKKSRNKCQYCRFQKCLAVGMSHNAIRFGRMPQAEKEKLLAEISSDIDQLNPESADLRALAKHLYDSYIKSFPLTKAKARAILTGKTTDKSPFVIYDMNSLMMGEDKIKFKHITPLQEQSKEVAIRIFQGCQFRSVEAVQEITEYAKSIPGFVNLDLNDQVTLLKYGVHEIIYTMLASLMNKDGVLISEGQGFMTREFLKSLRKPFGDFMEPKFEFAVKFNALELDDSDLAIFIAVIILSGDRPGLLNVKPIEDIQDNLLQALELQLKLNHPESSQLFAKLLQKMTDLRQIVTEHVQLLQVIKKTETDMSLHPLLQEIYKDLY

In the case of `O=C([O-])c1ccc(C2(NC(=O)[C@H]3CC4(CCN3Cc3ccc(C(F)(F)F)cc3)CC4)CC2)cc1.[Na+]` [CR6086, Sodium (R)-4-(1-(6-(4-(trifluoromethyl)benzyl)-6-azaspiro[2.5]octane-5-carboxamido)cyclopropyl)benzoate], the “effect on structural and inflammatory parameters (oedema, histology)” value ([1]; 15 mg/kg once daily, 14 days) is reported as “markedly and significantly improved all the structural and inflammatory parameters”, the “effect on arthritis clinical score and oedema” value ([1]; 1-10 mg/kg oral daily, 1 h and 24 h post-dosing) is reported as “significantly and dose-dependently reduced” and the “efficacy relative to active comparators” value ([1]; CR6086 15 mg/kg once daily, rofecoxib 5–15 mg/kg once daily, tofacitinib 5–25 mg/kg twice daily) is reported as “more effective than rofecoxib; also recorded: as effective as, but more potent than, tofacitinib”. For the same molecule, the “dose at which efficacy plateaued” value ([1]; oral, once daily, 14 days) was “around 10 mg/kg”, the minimum effective dose ([1]; oral, once daily, 14 days) was 1 mg/kg and the fraction unbound [2] was 0.0484. For the same molecule, the “effect on joint histopathology” value ([3]; 16 days, 30 mg/kg CR6086, 3 mg/kg MTX, alone or combined) was “significantly improved all histological features of arthritis”, the “CLINICAL SCORE (interquartile range)” value ([3]; DAY 0) was 2.0 (2.0 – 2.0) * and the “CLINICAL SCORE (interquartile range)” value ([3]; DAY 1) was 2.0 (2.0 – 2.0). For the same molecule, the “CLINICAL SCORE (interquartile range)” value ([3]; DAY 2) was 2.0 (1.0 – 2.0), the “CLINICAL SCORE (interquartile range)” value ([3]; DAY 3) was 2.0 (1.0 – 3.1) and the “CLINICAL SCORE (interquartile range)” value ([3]; DAY 4) was 2.0 (1.0 – 2.3). The “CLINICAL SCORE (interquartile range)” value ([3]; DAY 5) was 2.0 (1.3 – 2.0), the “CLINICAL SCORE (interquartile range)” value ([3]; DAY 6) was 2.0 (2.0 – 3.0) and the “CLINICAL SCORE (interquartile range)” value ([3]; DAY 7) was 2.0 (1.0 – 3.1). For the same molecule, the “CLINICAL SCORE (interquartile range)” value ([3]; DAY 8) was 2.0 (0.5 – 3.5), the “CLINICAL SCORE (interquartile range)” value ([3]; DAY 9) was 2.0 (1.0 – 3.3) and the “CLINICAL SCORE (interquartile range)” value ([3]; DAY 10) was 2.5 (2.0 – 4.3). The “CLINICAL SCORE (interquartile range)” value ([3]; DAY 11) was 4.0 (2.0 – 5.0), the “CLINICAL SCORE (interquartile range)” value ([3]; DAY 12) was 4.8 (2.8 – 5.1) and the “CLINICAL SCORE (interquartile range)” value ([3]; DAY 13) was 4.5 (3.0 – 5.5). For the same molecule, the “CLINICAL SCORE (interquartile range)” value ([3]; DAY 14) was 3.0 (3.0 – 4.9), the “CLINICAL SCORE (interquartile range)” value ([3]; DAY 15) was 4.5 (3.0 – 5.0) and the “CLINICAL SCORE (interquartile range)” value ([3]; DAY 16) was 2.0 (1.0 – 3.5). It also gave an inhibition at 10 µM (A3) of less than 20%, an inhibition at 10 µM (5-HT3) of less than 20% and an inhibition at 10 µM (GAL2) of less than 20%. The inhibition at 10 µM (Y1) was less than 20% and the inhibition at 10 µM (PPARγ) was less than 20%.
